Reference: EP4680608B1, “2,6-DIHYDRO-7H-PYRAZOLO[3,4-C]PYRIDIN-7-ONE DERIVATIVES AS ANTI-MALARIAL AGENTS” (MMV Medicines for Malaria Venture, priority 2024, dated 2025)

Columns and labels:
[1] = tested on: P. falciparum 3D7; experiment: Asexual blood-stage growth inhibition assay, SYBR green method; format: cell-based; conditions: ring-stage 3D7 parasites
Description: Asexual blood-stage EC50 assays. […] Compound stocks prepared in DMSO were plated using a Tecan D300e automated low volume liquid handler. Ring-stage 3D7 or Dd2 parasites (60 µL cells) (2% hematocrit, 0.5% parasitemia, final DMSO concentration 0.5%) were added to plates, incubated with compounds over a range of concentrations in technical triplicate for 72 h at 37 °C, 5% CO2, and then frozen (-80°C) overnight before analysis. […] Data were analyzed by non-linear regression using GraphPad Prism to determine the EC50 by fitting to the built-in equation (log(inhibitor) vs response-variable slope with four parameters).

[2] = biological target: P. vivax DHODH (Plasmodium vivax, UniProt A5K1N1); experiment: DHODH inhibition, steady-state DCIP assay (PvDHODH); format: biochemical; conditions: recombinant PvDHODH, DCIP method, 25°C, 5 nM enzyme; read-out: P. vivax DHODH (IC50)
Sequence of P. vivax DHODH (A5K1N1 entry or part of it): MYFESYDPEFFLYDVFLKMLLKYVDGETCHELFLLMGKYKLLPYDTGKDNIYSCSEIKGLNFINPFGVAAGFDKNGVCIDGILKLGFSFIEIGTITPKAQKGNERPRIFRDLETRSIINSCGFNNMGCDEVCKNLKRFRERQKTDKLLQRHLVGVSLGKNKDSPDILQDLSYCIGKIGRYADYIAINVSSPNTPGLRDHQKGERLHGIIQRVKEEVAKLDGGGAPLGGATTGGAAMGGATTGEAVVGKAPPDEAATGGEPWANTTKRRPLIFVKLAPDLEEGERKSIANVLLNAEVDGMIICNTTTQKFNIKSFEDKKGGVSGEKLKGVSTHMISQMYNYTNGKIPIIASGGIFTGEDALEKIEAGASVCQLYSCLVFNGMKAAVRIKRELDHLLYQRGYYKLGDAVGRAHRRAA
Description: (§1) DOI: 10.1074/jbc.M206854200).
(§2) Proteins were expressed and purified on a Pharmacia FPLC using HisTrap HP column chromatography followed by gel filtration chromatography on a Pharmacia HiLoad 16/600 Superdex 200 column, and protein concentration determined based on OD280 using the previously described extinction coefficients (Kokkonda et al., 2020, J Med Chem, 63 (9), 4929-4956. DOI: 10.1021/acs.jmedchem.0c00311). Purified proteins were >95% pure based on SDS-PAGE analysis.
(§3) DHODH activity was monitored in a steady-state assay using the 2,6-dichloroindophenol (DCIP) method at 25°C in assay buffer (100 mM HEPES, pH 8.0, 150 mM NaCl, 1% glycerol, 0.1% Triton X-100 reduced) plus substrates 20 µM CoQD, 200 µM DHO, 120 µM DCIP, and 5 nM enzyme as previously described (Malmquist et al, 2008, Biochemistry, 47 (8), 2466-2475. DOI: 10.1021/bi702218c).
(§4) Compound stocks were prepared at 10-100 mM in DMSO, and diluted working stocks in DMSO were generated as appropriate. Compounds were plated from DMSO stocks in 96 well plate format using a Tecan D300e digital dispenser to generate a 3-fold dilution series over a concentration range of 0.0003 -100 µM (or 30 µM), yielding a final DMSO concentration of 1% in the assay. The top concentration used in the dose response was determined by the initial DMSO stock concentrations:100 µM for 100 mM stocks, and 30 µM for 10 mM stocks. Triplicate rate data were collected at each inhibitor concentration. Inhibitory IC50 values were determined by fitting the data to log (inhibitor) vs response equation Y = bottom + (top - bottom)/(1 + 10A ((X - Log IC50))) in GraphPad Prism. DSM265 ^2 was plated as an assay control in all studies.

[3] = biological target: T1, P. falciparum DHODH (Plasmodium falciparum, UniProt Q08210); experiment: DHODH inhibition, steady-state DCIP assay (PfDHODH); format: biochemical; conditions: recombinant PfDHODH, DCIP method, 25°C, 5 nM enzyme
T1 construct: His6 (N); made in house; host or cells: E. coli BL21-DE3 (phage-resistant)
T1 sequence (Q08210 158-569): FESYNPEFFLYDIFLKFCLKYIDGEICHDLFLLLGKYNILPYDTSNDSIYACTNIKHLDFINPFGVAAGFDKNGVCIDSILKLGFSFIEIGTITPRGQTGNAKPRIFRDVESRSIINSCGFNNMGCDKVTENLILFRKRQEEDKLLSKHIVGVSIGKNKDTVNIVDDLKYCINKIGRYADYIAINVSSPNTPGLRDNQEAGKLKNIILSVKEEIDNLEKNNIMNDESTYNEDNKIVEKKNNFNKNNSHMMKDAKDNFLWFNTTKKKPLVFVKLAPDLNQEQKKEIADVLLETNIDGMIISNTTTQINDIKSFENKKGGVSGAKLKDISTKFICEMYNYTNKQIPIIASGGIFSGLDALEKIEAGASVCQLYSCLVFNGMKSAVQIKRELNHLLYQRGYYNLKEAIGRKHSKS
Description: as §4, with “Prism.” for “Prism. DSM265 ^2 was plated as an assay control in all studies.”

[4] = biological target: T2, Human DHODH (Homo sapiens, UniProt Q02127); experiment: DHODH inhibition, steady-state DCIP assay (human DHODH); format: biochemical; conditions: recombinant HsDHODH, DCIP method, 25°C, 5 nM enzyme; top concentration 100 µM or 30 µM
T2 construct: C-terminal His6-tagged HsDHODH residues 29-395 in pET-22b (start ^29MATGDE); His6 (C); made in house; host or cells: E. coli BL21-DE3 (phage-resistant)
T2 sequence (Q02127 29-395): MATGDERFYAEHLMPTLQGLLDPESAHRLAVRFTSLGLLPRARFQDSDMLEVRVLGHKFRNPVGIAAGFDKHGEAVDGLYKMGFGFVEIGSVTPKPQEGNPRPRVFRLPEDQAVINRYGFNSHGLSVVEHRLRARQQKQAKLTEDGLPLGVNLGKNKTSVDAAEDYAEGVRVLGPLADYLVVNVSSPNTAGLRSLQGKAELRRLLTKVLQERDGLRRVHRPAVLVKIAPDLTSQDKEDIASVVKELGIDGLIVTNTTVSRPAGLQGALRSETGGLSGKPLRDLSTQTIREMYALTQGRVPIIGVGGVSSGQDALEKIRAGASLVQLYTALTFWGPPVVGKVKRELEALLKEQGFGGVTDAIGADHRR
Description: as §1, §2, §3, §4

[5] = Plasmodium falciparum, 3D7, 72 h

Structure (SMILES)	EC50 [1, 5] [nM]	IC50 [2] [nM]	IC50 [3] [nM]	IC50 [4] [nM]	EC50 ([1]; 72 h) [nM]
CC[C@@](N)(c1ccc(C(F)(F)F)c(F)c1)c1c2ccn(C3CC3)c(=O)c2nn1C (single isomer, unassigned) [4-5]	10	7	16	1300	
CC[C@@](N)(c1ccc(C(F)(F)F)c(Cl)c1)c1c2ccn(C3CC3)c(=O)c2nn1C (single isomer, unassigned) [4-8]	1.1	6.2	9.3	1000	
CC[C@@](N)(c1cnc(C(F)(F)F)c(Cl)c1)c1c2ccn(C3CC3)c(=O)c2nn1C (single isomer, unassigned) [4-11]	2.6	41	42	13000	
CCn1cc(C)c2c([C@H](N)c3ccc(C(F)(F)F)c(C#N)c3)n(C)nc2c1=O (single isomer, unassigned) [4-14]	16	39	83	> 100000	
Cn1nc2c(=O)n(C3CC3)ncc2c1[C@](N)(c1ccc(C(F)(F)F)c(Cl)c1)C1CC1 (single isomer, unassigned) [4-16]	7.4	7.8	17	16000	
Cn1nc2c(=O)n(C3CC3)cnc2c1[C@](C)(N)c1ccc(C(F)(F)F)c(Cl)c1 (single isomer, unassigned) [4-20]	0.44	8.3	8.2	20000	
CC[C@@](N)(c1ccc(F)c(Cl)c1)c1c2ncn(C3CC3)c(=O)c2nn1C (single isomer, unassigned) [4-22]	4.1	20	23	4600	
Cn1nc2c(=O)n(C3CC3)cnc2c1[C@](N)(c1ccc(C(F)(F)F)c(Cl)c1)C1CC1 (single isomer, unassigned) [4-24]	2.1	8.7	11	3200	
CC[C@@](N)(c1ccc(C(F)(F)F)c(Cl)c1)c1c2ncn(C3CC3)c(=O)c2nn1C (single isomer, unassigned) [4-26]	0.91	5.2	9.5	1400	
CC[C@@](N)(c1cnc(C(F)(F)F)c(Cl)c1)c1c2ncn(C3CC3)c(=O)c2nn1C (single isomer, unassigned) [4-27]	6.5	40	47	> 30000	
Cn1nc2c(=O)n(C3CC3)cnc2c1[C@](O)(c1cnc(C(F)(F)F)c(Cl)c1)C(F)(F)F (single isomer, unassigned) [5-3]	1.7	28	18	> 30000	
Cn1nc2c(=O)n(C3CC3)ccc2c1[C@](O)(c1ccc(F)c(Cl)c1)C(F)(F)F (single isomer, unassigned) [5-9]	0.52	9.8	14	9200	
Cn1nc2c(=O)n(C3CC3)ncc2c1[C@](O)(c1ccc(C(F)(F)F)c(Cl)c1)C(F)(F)F (single isomer, unassigned) [5-15]	0.29	9.3	8.6	24000	
Cn1nc2c(=O)n(C3CC3)cnc2c1[C@](O)(c1ccc(C(F)(F)F)c(Cl)c1)C(F)(F)F (single isomer, unassigned) [5-17]	0.046	6.1	4.6	5600	
Cn1nc2c(=O)n(C3CC3)cnc2c1[C@](O)(c1ccc(C(F)(F)F)c(C#N)c1)C(F)(F)F (single isomer, unassigned) [5-19]		20	12	17000	0.35
Cn1nc2c(=O)n(C3CC3)cnc2c1[C@](O)(c1ccc(C(F)(F)F)nc1)C(F)(F)F (single isomer, unassigned) [5-21]	2.1	29	31	> 30000	
Cn1nc2c(=O)n(C3CC3)cnc2c1[C@](O)(c1cnc(C(F)(F)F)c(Cl)c1)C(F)F (single isomer, unassigned) [5-22]	6.1	7.7	11	22000	
CC(C)n1cnc2c([C@](O)(c3ccc(C(F)(F)F)c(Cl)c3)C(F)(F)F)n(C)nc2c1=O (single isomer, unassigned) [5-32]	0.25	8.5	5	14000	
Cn1nc2c(=O)n(C3CC3)cnc2c1[C@](N)(c1ccc(C(F)(F)F)c(C#N)c1)C(F)(F)F (single isomer, unassigned) [5-40]	3.1	22	18	> 30000	
Cn1nc2c(=O)n(C3CC3)ccc2c1[C@](N)(c1ccc(C(F)(F)F)c(C#N)c1)C(F)(F)F (single isomer, unassigned) [5-45]	0.85	8.5	8.2	30000	
Cn1nc2c(=O)n(C3CC3)ccc2c1[C@](N)(c1ccc(C(F)(F)F)c(Cl)c1)C(F)(F)F (single isomer, unassigned) [5-49]	0.64	4.2	3.9	9000	
Cn1nc2c(=O)n(C3CC3)cnc2c1[C@](N)(c1ccc(C(F)(F)F)c(Cl)c1)C(F)(F)F (single isomer, unassigned) [5-51]	0.71	4	4.3	30000	
Cn1nc2c(=O)n(C3CC3)cnc2c1[C@](O)(c1cnc(C(F)(F)F)c(C#N)c1)C(F)(F)F (single isomer, unassigned) [5-52]	11	46	62	> 30000	
Cn1nc2c(=O)n(C3CC3)cnc2c1[C@](O)(c1ccc(C(F)F)c(C#N)c1)C(F)(F)F (single isomer, unassigned) [5-54]	3	3.5	44	> 30000	
CCC(O)(c1cnc(C(F)(F)F)c(Cl)c1)c1c2cc(C)n(C3CC3)c(=O)c2nn1C (centres unmarked) [1-7, 3-(1-(5-chloro-6-(trifluoromethyl)pyridin-3-yl)-1-hydroxypropyl)-6-cyclopropyl-2,5-dimethyl-2,6-dihydro-7H-pyrazolo[3,4-c]pyridin-7-one]	6.5	26	60	14000	
Cn1nc2c(=O)n(CC(F)(F)F)cnc2c1[C@](O)(c1ccc(C(F)(F)F)c(Cl)c1)C(F)(F)F [5-26, (R)-3-(1-(3-chloro-4-(trifluoromethyl)phenyl)-2,2,2-trifluoro-1-hydroxyethyl)-2-methyl-6-(2,2,2-trifluoroethyl)-2,6-dihydro-7H-pyrazolo[4,3-d]pyrimidin-7-one]	0.39	25	17	> 30000	
